Data published in the supplement of paper PMC7214452.

How the values were obtained:
Test in all cases: normalized area under the dose-response curve (viability relative to DMSO control) (fraction); higher = less sensitive (more viable cells)
Conditions in all cases: exposure time not given
KMS34 (cancer type: MM) = test system: KMS34 (cancer type: MM)
Experimental: (§1)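 25 myeloma and 15 non-Hodgkin lymphoma cell lines were exposed to each of 76 drugs as 7-point log dilutions (0.01 nM–10 µM) in duplicate. Viability was read with CellTiter-Glo and normalised to DMSO (0.1%) and staurosporine (10 µM) plate controls. Normalised AUC was calculated by the trapezoidal method relative to the negative control.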

[1] = test system: SR-786 (cancer type: TCL)
Experimental: as §1

My-La (cancer type: TCL) = test system: My-La (cancer type: TCL)
Experimental: as §1

[2] = test system: SU-DHL1 (cancer type: TCL)
Experimental: as §1

[3] = test system: Mino (cancer type: Mantle)
Experimental: as §1

[4] = test system: OCI-LY19 (cancer type: DLBCL)
Experimental: as §1

[5] = test system: NCI-H929 (cancer type: MM)
Experimental: as §1

[6] = test system: OCI-MY5/CRBN (cancer type: MM)
Experimental: as §1

MM1.R (cancer type: MM) = test system: MM1.R (cancer type: MM)
Experimental: as §1

EJM (cancer type: MM) = test system: EJM (cancer type: MM)
Experimental: as §1

LP1 (cancer type: MM) = test system: LP1 (cancer type: MM)
Experimental: as §1

[7] = test system: RPMI 8226 (cancer type: MM)
Experimental: as §1

U266 (cancer type: MM) = test system: U266 (cancer type: MM)
Experimental: as §1

L363 (cancer type: MM) = test system: L363 (cancer type: MM)
Experimental: as §1

[8] = test system: SU-DHL6 (cancer type: DLBCL)
Experimental: as §1

[9] = test system: HuT 78 (cancer type: TCL)
Experimental: as §1

MM1.S (cancer type: MM) = test system: MM1.S (cancer type: MM)
Experimental: as §1

Se-Ax (cancer type: TCL) = test system: Se-Ax (cancer type: TCL)
Experimental: as §1

[10] = test system: KMS28PE (cancer type: MM)
Experimental: as §1

SKMM2 (cancer type: MM) = test system: SKMM2 (cancer type: MM)
Experimental: as §1

[11] = test system: JVM2 (cancer type: Mantle)
Experimental: as §1

[12] = test system: Karpas-299 (cancer type: TCL)
Experimental: as §1

KMS11 (cancer type: MM) = test system: KMS11 (cancer type: MM)
Experimental: as §1

OPM2 (cancer type: MM) = test system: OPM2 (cancer type: MM)
Experimental: as §1

[13] = test system: OCI-MY7 (cancer type: MM)
Experimental: as §1

[14] = test system: OCI-LY1 (cancer type: DLBCL)
Experimental: as §1

[15] = test system: Granta-519 (cancer type: Mantle)
Experimental: as §1

[16] = test system: KMS28BM (cancer type: MM)
Experimental: as §1

[17] = test system: OCI-MY5/Vec (cancer type: MM)
Experimental: as §1

[18] = test system: SU-DHL2 (cancer type: DLBCL)
Experimental: as §1

[19] = test system: OCI-LY3 (cancer type: DLBCL)
Experimental: as §1

AMO1 (cancer type: MM) = test system: AMO1 (cancer type: MM)
Experimental: as §1

[20] = test system: OCI-MY5 (cancer type: MM)
Experimental: as §1

JJN3 (cancer type: MM) = test system: JJN3 (cancer type: MM)
Experimental: as §1

[21] = test system: JeKo-1 (cancer type: Mantle)
Experimental: as §1

XG2 (cancer type: MM) = test system: XG2 (cancer type: MM)
Experimental: as §1

KMS18 (cancer type: MM) = test system: KMS18 (cancer type: MM)
Experimental: as §1

[22] = test system: KMS12PE (cancer type: MM)
Experimental: as §1

KMS26 (cancer type: MM) = test system: KMS26 (cancer type: MM)
Experimental: as §1

FR4 (cancer type: MM) = test system: FR4 (cancer type: MM)
Experimental: as §1

| Structure (SMILES) | normalized area under the dose-response curve (KMS34 (cancer type: MM)) | normalized area under the dose-response curve [1] | normalized area under the dose-response curve (My-La (cancer type: TCL)) | normalized area under the dose-response curve [2] | normalized area under the dose-response curve [3] | normalized area under the dose-response curve [4] | normalized area under the dose-response curve [5] | normalized area under the dose-response curve [6] | normalized area under the dose-response curve (MM1.R (cancer type: MM)) | normalized area under the dose-response curve (EJM (cancer type: MM)) | normalized area under the dose-response curve (LP1 (cancer type: MM)) | normalized area under the dose-response curve [7] | normalized area under the dose-response curve (U266 (cancer type: MM)) | normalized area under the dose-response curve (L363 (cancer type: MM)) | normalized area under the dose-response curve [8] | normalized area under the dose-response curve [9] | normalized area under the dose-response curve (MM1.S (cancer type: MM)) | normalized area under the dose-response curve (Se-Ax (cancer type: TCL)) | normalized area under the dose-response curve [10] | normalized area under the dose-response curve (SKMM2 (cancer type: MM)) | normalized area under the dose-response curve [11] | normalized area under the dose-response curve [12] | normalized area under the dose-response curve (KMS11 (cancer type: MM)) | normalized area under the dose-response curve (OPM2 (cancer type: MM)) | normalized area under the dose-response curve [13] | normalized area under the dose-response curve [14] | normalized area under the dose-response curve [15] | normalized area under the dose-response curve [16] | normalized area under the dose-response curve [17] | normalized area under the dose-response curve [18] | normalized area under the dose-response curve [19] | normalized area under the dose-response curve (AMO1 (cancer type: MM)) | normalized area under the dose-response curve [20] | normalized area under the dose-response curve (JJN3 (cancer type: MM)) | normalized area under the dose-response curve [21] | normalized area under the dose-response curve (XG2 (cancer type: MM)) | normalized area under the dose-response curve (KMS18 (cancer type: MM)) | normalized area under the dose-response curve [22] | normalized area under the dose-response curve (KMS26 (cancer type: MM)) | normalized area under the dose-response curve (FR4 (cancer type: MM)) |
| --- | --- | --- | --- | --- | --- | --- | --- | --- | --- | --- | --- | --- | --- | --- | --- | --- | --- | --- | --- | --- | --- | --- | --- | --- | --- | --- | --- | --- | --- | --- | --- | --- | --- | --- | --- | --- | --- | --- | --- | --- |
| CO[C@H]1C[C@@H]2CC[C@@H](C)[C@@](O)(O2)C(=O)C(=O)N2CCCC[C@H]2C(=O)O[C@H]([C@H](C)C[C@@H]2CC[C@@H](OCCO)[C@H](OC)C2)CC(=O)[C@H](C)/C=C(\C)[C@@H](O)[C@@H](OC)C(=O)[C@H](C)C[C@H](C)/C=C/C=C/C=C/1C [Everolimus] | 0.557 | 0.729 | 0.711 | 0.639 | 0.72 | 0.592 | 0.71 | 0.829 | 0.63 | 0.661 | 0.831 | 0.769 | 0.606 | 0.627 | 0.685 | 0.699 | 0.63 | 0.545 | 0.699 | 0.802 | 0.64 | 0.682 | 0.674 | 0.593 | 0.83 | 0.665 | 0.783 | 0.813 | 0.819 | 0.566 | 0.785 | 0.637 | 0.676 | 0.656 | 0.876 | 0.505 | 0.617 | 0.72 | 0.76 | 0.758 |
| Nc1nc(F)nc2c1ncn2[C@@H]1O[C@H](COP(=O)(O)O)[C@@H](O)[C@@H]1O [Fludarabine phosphate] | 0.785 | 0.914 | 0.879 | 0.888 | 0.844 | 1.02 | 0.9 | 0.972 | 0.92 | 0.882 | 0.938 | 0.767 | 0.812 | 0.781 | 0.927 | 0.911 | 0.87 | 0.798 | 0.767 | 0.88 | 0.855 | 0.885 | 0.746 | 0.859 | 0.95 | 0.866 | 0.949 | 0.834 | 1 | 0.918 | 0.962 | 0.813 | 0.788 | 0.934 | 0.912 | 0.857 | 0.894 | 0.94 | 0.863 | 0.858 |
| C=CC(=O)N1CCC[C@@H](n2nc(-c3ccc(Oc4ccccc4)cc3)c3c(N)ncnc32)C1 [Ibrutinib] | 0.518 | 0.825 | 0.782 | 0.746 | 0.681 | 0.865 | 0.84 | 0.937 | 0.77 | 0.857 | 0.892 | 0.765 | 0.726 | 0.759 | 0.852 | 0.928 | 0.81 | 0.739 | 0.723 | 0.922 | 0.668 | 0.845 | 0.738 | 0.676 | 1 | 0.636 | 0.798 | 0.786 | 0.88 | 0.903 | 0.829 | 0.715 | 0.628 | 0.728 | 0.686 | 0.863 | 0.916 | 0.74 | 0.763 | 0.793 |
| COc1cc(C(=O)O)ccc1NC(=O)[C@@H]1N[C@@H](CC(C)(C)C)[C@](C#N)(c2ccc(Cl)cc2F)[C@H]1c1cccc(Cl)c1F [Idasanutlin] | 0.751 | 0.861 | 0.937 | 0.877 | 0.928 | 0.92 | 0.79 | 0.852 | 0.84 | 0.858 | 0.955 | 0.943 | 0.773 | 0.834 | 0.898 | 0.825 | 0.81 | 0.82 | 0.922 | 0.962 | 0.832 | 0.86 | 0.868 | 0.861 | 0.92 | 0.959 | 0.873 | 0.935 | 0.902 | 0.961 | 0.967 | 0.732 | 0.834 | 0.88 | 0.852 | 0.838 | 0.831 | 0.96 | 0.798 | 0.837 |
| CC[C@H](Nc1ncnc2[nH]cnc12)c1nc2cccc(F)c2c(=O)n1-c1ccccc1 [Idelalisib] | 0.728 | 0.916 | 0.81 | 0.782 | 0.882 | 0.806 | 0.78 | 0.941 | 0.74 | 0.942 | 0.832 | 0.826 | 0.859 | 0.815 | 0.694 | 0.85 | 0.78 | 0.731 | 0.879 | 0.897 | 0.606 | 0.891 | 0.87 | 0.931 | 0.89 | 0.737 | 0.78 | 0.818 | 0.903 | 0.962 | 0.809 | 0.831 | 0.742 | 0.834 | 0.842 | 0.832 | 0.978 | 0.85 | 0.876 | 0.872 |
| Cc1ccc(NC(=O)c2ccc(CN3CCN(C)CC3)cc2)cc1Nc1nccc(-c2cccnc2)n1 [Imatinib] | 0.562 | 0.934 | 0.98 | 0.774 | 0.958 | 0.928 | 0.93 | 0.892 | 0.84 | 0.887 | 0.785 | 0.885 | 0.783 | 0.749 | 0.92 | 0.9 | 0.88 | 0.79 | 0.79 | 0.926 | 0.759 | 0.876 | 0.714 | 0.752 | 0.93 | 1 | 0.943 | 0.902 | 0.804 | 0.943 | 0.935 | 0.789 | 0.793 | 0.789 | 0.915 | 0.839 | 0.807 | 0.9 | 0.918 | 0.816 |
| Nc1cccc2c1CN(C1CCC(=O)NC1=O)C2=O (stereo not given) [Lenalidomide] | 0.662 | 0.992 | 0.944 | 0.812 | 0.897 | 0.758 | 0.74 | 0.928 | 0.68 | 0.836 | 0.847 | 0.915 | 0.858 | 0.785 | 0.847 | 0.828 | 0.66 | 0.709 | 0.899 | 0.874 | 0.657 | 0.875 | 0.758 | 0.846 | 0.78 | 0.825 | 0.891 | 0.819 | 0.999 | 0.785 | 0.802 | 0.799 | 0.786 | 0.822 | 0.874 | 0.861 | 0.805 | 0.74 | 0.785 | 0.852 |
| COc1cc2nccc(Oc3ccc(NC(=O)NC4CC4)c(Cl)c3)c2cc1C(N)=O [Lenvatinib] | 0.912 | 0.953 | 0.94 | 0.909 | 0.97 | 0.87 | 0.92 | 0.944 | 0.85 | 0.97 | 0.863 | 0.918 | 0.992 | 0.88 | 0.964 | 0.866 | 0.88 | 0.883 | 0.877 | 0.943 | 0.723 | 0.885 | 0.814 | 0.892 | 0.92 | 0.936 | 0.948 | 0.877 | 0.949 | 0.937 | 0.931 | 0.963 | 0.84 | 0.897 | 0.938 | 0.905 | 0.977 | 0.94 | 0.884 | 1.02 |
